Data from patent publication US6310093A (priority 1998, dated 2001).
Values joined by “and” are separate entries in the source; they are usually repeats but may differ in a detail not shown here. Identical values can stand only once. Like-named read-outs stand apart in the source and are kept apart here.

Tests used:
neuronal cultures = assay: Glutamate production by intact and damaged neuronal cultures with added glutamine; format: cell-based, mouse (Swiss Webster); settings: for Glutamate concentration (in words) / Glutamate production (S): 2 mM Gln
Experimental: When 2 mM glutamine is added to intact neuronal cultures, the rate at which glutamate accumulates in the culture medium increases with time (FIG. 2). Since the clearance of medium glutamate by neuronal cultures is extremely slow, one estimate of the rate of glutamate production by neurons exposed to glutamine can be obtained from the initial rate of glutamate accumulation. Using the difference in glutamate concentrations at 1 and 15 min after glutamine addition, a value of 0.032±0.006 μM/min (12.8 pmol/min) was obtained. Since glutamine exposure itself eventually causes neuronal death and high rates of glutamine hydrolysis, this estimate of glutamate production should be viewed as an upper limit. However, this value is similar to that obtained by comparing glutamate production by glial and mixed neuronal-glial cultures exposed to glutamine (see below).
In the absence of added glutamine (i.e., in the 0.15 mM glutamine manufactured by the neuronal cultures), glutamate production into the medium of cultures lysed by freezing and thawing occurred at a rate of 0.035±0.006 μM/min (14 pmol/min). […] Thus, damaged neurons incubated in 2 mM glutamine produce within 6-8 min an amount equal to that released by freeze-thawing.
Pre-column derivatization with o-phthalaldehyde (OPA, Sigma) and separation by reversed phase HPLC was used. A Gilson HPLC was fitted with a Hewlett-Packard model 1046A fluorimetric detector (excitation 340 nm, emission 420 nm). Medium was collected from cell culture at various times, and frozen at -80° C., prior to dilution of 5 or 10 μl into auto-sampler vials containing 40 or 45 μl dimethylformamide:water 1:3 (derivatives with 2-mercaptoethanol) or 1:9 (derivatives with N-acetyl-L-cysteine). For analysis of the derivatives formed with 2-mercaptoethanol, samples were reacted according to published methods (Newcomb, R. (1989) LC GC 7, 570-578; Lindroth, P., and Mopper. K., (1979) Anal. Chem. 51, 1667-1674.), and a gradient of 0-40% methanol in 1.25 mM sodium phosphate pH 6.2 over 20 min was used to elute the derivatives from a 4.5×250 mm Beckman Ultrasphere octadecylsilica column (dp 5 μm) at 1 ml/min. For analysis of the derivatives formed with N-acetyl-L-cysteine (Bruckner), samples were reacted with 25 μl of 1 mg/ml OPA, and 50 μl of 1 mg/ml N-acetyl-L-cysteine (Fluka) in 0.5 M potassium borate pH 10.0. Chromatography was carried out on a 4.5×250 mm Phenomonex Primesphere "HC" octadecylsilica column (dp 5 μm) using a gradient of 0-35% methanol in 15 mM sodium phosphate pH 6.2 (0.13% tetrahydrofuran) over 65 minutes at 1 ml/min. It was shown for each of the experimental conditions (ie. glial and control and damaged neuronal and mixed cultures) that both analytical systems gave results for glutamate and glutamine measurements which were, within error, identical.
Glutamate concentrations were converted to units of pmol/μl of culture medium, or μM. In the absence of cellular uptake (ie, in damaged neuronal cultures), the rate of glutamate production was obtained directly from the measurements of the amounts of glutamate in culture medium at various times.

[1] = tested on: ischemic penumbra (dialysate glutamate); assay: In vivo microdialysis of ischemic penumbra after MCAO; set-up: species or system rat; settings: 10 mM glutamine plus 20 mM sodium phosphate, 1 h; ±115%
Experimental: In further microdialysis experiments, exogenous glutamine was added to the ischemic penumbra via the probe, and dialysis glutamate was measured, as described in Example 7. When 10 mM glutamine plus 20 mM sodium phosphate were perfused into the penumbra for one hour, dialysate glutamate was elevated 315% as compared to control (±115%). […] The effects on glutamate were much more pronounced than on other amino acids measured; therefore, these studies provided further support for the involvement of extracellular glutaminase activity in producing the elevated levels of glutamate in cortical tissue undergoing ischemic damage.
The middle cerebral arteries of rats were occluded as in EXAMPLE 7, and the rats were returned to their cages overnight. The next morning, dialysis probes ([…], 2 mm length, 20,000 dalton cutoff) were inserted into ischemic penumbra (cortex) and perfused with artificial CSF at 3 μl/min for 1 h prior to collection of 10 minute fractions of dialysate. The effectiveness of the occlusion and the placement of probes were verified by TTC staining of 1 mm sections at the conclusion of the experiment. Amino acids in the dialysate were measured by reverse phase HPLC with fluorescence detection, after derivatization of the dialysates with o-phthaldialdehyde and N-acetyl-L-cysteine […]

[2] = tested on: pure neuronal cultures (cortical neurons) exposed to glutamine
[3] = tested on: mixed neuronal-astrocyte cultures
[4] = tested on: pure neuronal cultures (cortical neurons) exposed to glutamine; assay: cells; settings: Mus musculus, Cortical neurone, 24 h, read-out: neuronal LDH release
[5] = tested on: mixed neuronal-astrocyte cultures; assay: cells; settings: Mus musculus
glutaminase = settings: Kovacevic and McGiven, 1983; read-out: Km of glutaminase for glutamine; cited from earlier work

## NC(=O)CC[C@H](N)C(=O)O [Gln, glutamine]
Neuronal cultures; 2 mM glutamine
  glutamate production by damaged neurons vs intact neurons or glia: 10-30 fold
Neuronal cultures; NMDA-treated neurons
  Glutamate concentration (in words): increases linearly
  Glutamate production (S): 0.54 ± 0.09 µM/min
Neuronal cultures; NMDA-treated neurons, 2 mM glutamine
  glutamate production per culture: 216 pmol/min
Neuronal cultures; freeze-thaw damaged neurons
  Glutamate concentration (in words): increases linearly
  Glutamate production (S): 0.79 ± 0.08 µM/min
Neuronal cultures; freeze-thawed neurons, 2 mM glutamine
  glutamate production per culture: 316 pmol/min
Neuronal cultures; intact neurons
  Glutamate concentration (in words): increases
  Glutamate production (S): 0.032 ± 0.006 µM/min
Neuronal cultures; intact neurons, 2 mM glutamine
  glutamate production per culture: 12.8 pmol/min
[1]
  dialysate glutamate elevation vs control: 315%
[2]
  medium glutamate: 197 ± 23 μM Glu
[3]
  Glu: 3.1 ± 0.28 and 3.88 ± 0.14
  medium glutamate: 2.3 ± 1.1 μM Glu
[4]
  cytotoxicity at 2000 µM: 62 ± 22%
[5]; 7 h, read-out: neuronal LDH release
  cytotoxicity at 2000 µM: 48.5 ± 14.4%
[5]; 24 h, read-out: % cell death (LDH)
  cytotoxicity at 2000 µM: 42.2%
[5]; read-out: neuronal death in hypoxia with added glutamine
  cytotoxicity at 2000 µM: ~40%
glutaminase
  Km: 2 to 8 mM
